Measured values as given in patent publication US20250339409A1, “USES OF PAN BET INHIBITORS” (VYNE THERAPEUTICS INC., priority 2021, published 2025).
“And” between values parts separate entries of the source, which are not always exact repeats. Identical values can stand only once.

Assays:
MMP-9 = assay: RHE vitiligo model: MMP-9 secretion by ELISA; format: cell-based, human; settings: for reduction in secreted MMP-9: 1% treatment, vs stimulated/untreated control or vehicle; for MMP-9 (% stimulated ctl) Mean / MMP-9 (% stimulated ctl): TNF-α/IFN-γ stimulated RHE; for MMP-9 (% stimulated ctl) Mean / MMP-9 (% stimulated ctl) / Mean conc MMP-9 / Conc MMP-9: 48 h; for MMP-9 (% stimulated ctl) / Conc MMP-9: replicates N1-N3; for Mean conc MMP-9 / Conc MMP-9: culture medium of RHE, TNF-α 12 ng/ml/IFN-γ 12 ng/ml
Method: (§1) […] Three epidermis samples per condition are fixed in 4% formaldehyde solution and embedded in paraffin for further analysis (morphology analysis, melanin and melanocytes localisation/quantification). Three other epidermis samples per condition are put in a specific lysis buffer for total RNA extraction.
(§2) At the end of the treatments, culture media is collected (from 3 epidermis per condition), aliquoted and stored at −20° C. until use in ELISA assays. The quantity of MMP-9 secreted by the epidermis at the end of the treatments is analysed using the human MMP-9 Quantikine ELISA kit (Bio-Techne; DMP900). The secretion of E-cadherin in culture media is measured using to human E-cadherin Quantikine ELISA kit (Bio-Techne; DCADE0) dedicated for the measurement of natural human E-cadherin in culture supernates, serum, plasma, urine, and saliva.
(§3) The ELISAs are performed following the instructions of the supplier. The quantities of MMP-9 and E-cadherin are determined by comparisons with standard curves performed with recombinant human MMP-9 or E-cadherin provided in the kits.
(§4) Quantification of secretion of MMP-9 and E-cadherin by ELISA from collected culture medium was conducted in accordance with Method E. The results, shown in FIG. 5A and FIG. 5B are based on Tables 23 and 24 respectively and presented in percentage of release in comparison to the stimulated control. A statistical analysis (student t-test) was performed to compare the effects of the treatments with the formulations to the vehicle (with $: 0.05>p>0.01; $$: 0.01>p>0.001; and $$$: p<0.001). The same analysis was performed to compare the effects of the vehicle and of the unstimulated control to the stimulated control (with *: 0.05>p>0.01; **: 0.01>p>0.001; and ***: p<0.001). The analysis was performed from three replicates per condition (n=3). The mean of the three values and the standard deviation are presented on the histograms in FIG. 5A and FIG. 5B. As shown in Table 21 and FIG. 5A and consistent with the results of Part A, MMP-9 secretion was increased following the stimulation with the cytokines, which validates the assay.

right knee joint = assay: Toxicity in dogs after intra-articular injection: mortality, pathology, knee joint histopathology (Mankin score); format: in vivo; settings: dog
Description: The purpose of this study was to determine the maximum tolerated dose and potential toxicity of BETi1 when administered by intra-articular injection to Beagle dogs and to determine local and systemic toxicokinetic characteristics associated with treatment of Beagle dogs with BETi1 formulations.
16 Beagle dogs (8 males, 8 females) were assigned to four treatment groups to determine toxicity of BETi1 formulations following intra-articular injection.
The experimental groups are presented below: • Group 1: Control; 0 mg of BETi1/animal dose • Group 2: Low Dose; 7.5 mg of BETi1/animal dose • Group 3: Mid Dose; 75 mg of BETi1/animal dose • Group 4: High Dose; 150 mg of BETi1/animal dose […]
Several features were measured in treated dogs, including viability, clinical observation, body weight, food consumption, clinical pathology (hematology, coagulation, serum chemistry, urinalysis), toxicokinetics, and pathology.
For all animals from the study, representative samples of organs and all gross lesions and masses from all groups were removed from fixative, trimmed, processed, embedded in paraffin, sectioned, stained with hematoxylin and eosin, and examined microscopically. […] A modified Semi-Quantitative Mankin scoring system was used to in evaluation of right knee joint histopathology, as shown in Table 48 below: […]

E-cadherin = assay: RHE vitiligo model: E-cadherin secretion by ELISA; format: cell-based, human; settings: for E-Cad (% stimulated ctl) Mean / E-Cad (% stimulated ctl): TNF-α/IFN-γ stimulated RHE; for E-Cad (% stimulated ctl) Mean / E-Cad (% stimulated ctl) / Mean conc E-Cad / Conc E-Cad: 48 h; for E-Cad (% stimulated ctl) / Conc E-Cad: replicates N1-N3; for Mean conc E-Cad / Conc E-Cad: culture medium of RHE, TNF-α 12 ng/ml/IFN-γ 12 ng/ml; for E-Cadherin secretion: RHE stimulated with TNF-α/IFN-γ
Method: as §1, §2, §3, §4

Q: Which results are given for `Cn1cc(-c2cccc(O)c2Oc2ccccc2)c2cc[nH]c2c1=O` [BETi1]?
A: reduction in secreted MMP-9 (MMP-9): ~95%; reduction in secreted MMP-9 (MMP-9; listed as BETi1 1%): > 95%; reduction in secreted MMP-9 (MMP-9; listed as BETi 1%): about 94.7%; MMP-9 (% stimulated ctl) Mean (MMP-9; BETi1 0.001%): 137%; MMP-9 (% stimulated ctl) (MMP-9; BETi1 0.001%): 140% and 138% and 134%; Mean conc MMP-9 (MMP-9; BETi1 0.001%): 24.1 ng/mL; Conc MMP-9 (MMP-9; BETi1 0.001%): 24.5 ng/mL and 24.1 ng/mL and 23.5 ng/mL; MMP-9 (% stimulated ctl) Mean (MMP-9; BETi1 0.01%): 113%; MMP-9 (% stimulated ctl) (MMP-9; BETi1 0.01%): 113% and 104% and 122%; Mean conc MMP-9 (MMP-9; BETi1 0.01%): 19.8 ng/mL; Conc MMP-9 (MMP-9; BETi1 0.01%): 19.9 ng/mL and 18.2 ng/mL and 21.4 ng/mL; MMP-9 (% stimulated ctl) Mean (MMP-9; BETi1 0.1%): 10%; MMP-9 (% stimulated ctl) (MMP-9; BETi1 0.1%): 9% (2×) and 12%; Mean conc MMP-9 (MMP-9; BETi1 0.1%): 1.7 ng/mL; Conc MMP-9 (MMP-9; BETi1 0.1%): 1.5 ng/mL and 2.0 ng/mL and 1.6 ng/mL; MMP-9 (% stimulated ctl) Mean (MMP-9; BETi1 1%): 5%; MMP-9 (% stimulated ctl) (MMP-9; BETi1 1%): 5% (2×) and 6%; Mean conc MMP-9 (MMP-9; BETi1 1%): 0.9 ng/mL; Conc MMP-9 (MMP-9; BETi1 1%): 0.9 ng/mL and 1.1 ng/mL and 0.8 ng/mL; tolerability, synovium findings (right knee joint; intra-articular 7.5, 75, 150 mg, 28 days): overall well-tolerated; total Mankin score, right knee joint (right knee joint; intra-articular, 14-points scale): total Mankin score of zero except for one animal at 75 mg dose; E-Cad (% stimulated ctl) Mean (E-cadherin; BETi1 0.001%): 138%; E-Cad (% stimulated ctl) (E-cadherin; BETi1 0.001%): 129% (2×) and 156%; Mean conc E-Cad (E-cadherin; BETi1 0.001%): 3.2 ng/mL; Conc E-Cad (E-cadherin; BETi1 0.001%): 3.0 ng/ml (2×) and 3.6 ng/ml; E-Cad (% stimulated ctl) Mean (E-cadherin; BETi1 0.01%): 118%; E-Cad (% stimulated ctl) (E-cadherin; BETi1 0.01%): 117% and 109% and 128%; Mean conc E-Cad (E-cadherin; BETi1 0.01%): 2.7 ng/mL; Conc E-Cad (E-cadherin; BETi1 0.01%): 2.7 ng/mL and 2.5 ng/mL and 2.9 ng/mL; E-Cad (% stimulated ctl) Mean (E-cadherin; BETi1 0.1%): 59%; E-Cad (% stimulated ctl) (E-cadherin; BETi1 0.1%): 61% and 56% and 62%; Mean conc E-Cad (E-cadherin; BETi1 0.1%): 1.4 ng/mL; Conc E-Cad (E-cadherin; BETi1 0.1%): 1.4 ng/ml (2×) and 1.3 ng/ml; E-Cad (% stimulated ctl) Mean (E-cadherin; BETi1 1%): 72%; E-Cad (% stimulated ctl) (E-cadherin; BETi1 1%): 71% and 72% and 74%; Mean conc E-Cad (E-cadherin; BETi1 1%): 1.7 ng/mL; Conc E-Cad (E-cadherin; BETi1 1%): 1.6 ng/ml and 1.7 ng/ml (2×); E-Cadherin secretion (E-cadherin; listed as 1% BETi1): about 118%; E-Cadherin secretion (E-cadherin; listed as BETi1 0.1%): 59%
